Test results as given in patent US6562828B1, “Amidine compounds” (Japan Tobacco Inc., priority 1998, dated 2003).
Counter-ions that a name gives are not always drawn.

Legend:
[1] = system: normal plasma; assay: Determination of prothrombin time (PT), mouse plasma; type: biochemical
Method: (§1) Determination of prothrombin time (PT)
(§2) Blood was taken from mouse, rat, crab-eating monkey and healthy human volunteers, and citric acid was added. The blood was centrifuged at 4° C. and 2000 G for 15 min to obtain normal plasma of various animals.
(§3) Purified water (5 μl) containing various concentrations of test compound was added to plasma (45 μl) and the resultant mixtures were used as samples. […] (Baxter) was prepared and heated at […] for 5 min, and a sample (50 μl) was admixed with the thrombin reagent (100 μl). The time (PT) until precipitation of fibrin was measured. The drug concentration that doubled the PT hours of the drug untreated group was calculated and taken as CT2.

[2] = biological target: T1, Human FXa (Homo sapiens, UniProt P00742); assay: Intravenous administration test in mouse, human FXa inhibitory activity in serum; type: in vivo; details: ICR mice, i.v., mean ± S.D., n = 3
T1 construct: Human FXa [Enzyme research Laboratories (USA)] enzyme; purchased Enzyme Research Laboratories (USA)
T1 sequence (P00742 235-488 limits assumed): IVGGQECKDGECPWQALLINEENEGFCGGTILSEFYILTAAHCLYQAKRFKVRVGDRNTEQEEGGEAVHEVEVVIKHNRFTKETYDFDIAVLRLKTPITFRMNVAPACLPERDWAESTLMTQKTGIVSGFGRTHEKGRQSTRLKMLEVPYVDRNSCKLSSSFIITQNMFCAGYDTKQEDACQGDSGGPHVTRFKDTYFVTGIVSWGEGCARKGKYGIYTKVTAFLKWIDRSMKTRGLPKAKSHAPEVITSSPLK
T1 sequence (P00742 41-179 limits assumed): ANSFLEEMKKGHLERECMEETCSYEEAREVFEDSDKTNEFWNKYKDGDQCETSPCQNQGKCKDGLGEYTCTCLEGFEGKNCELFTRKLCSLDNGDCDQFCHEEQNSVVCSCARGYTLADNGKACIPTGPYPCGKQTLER
Method: Intravenous Administration Tests in Mouse
A test compound dissolved in physiological saline was intravenously administered to ICR mice (body weight 20-30 g, 4-6 weeks old) and the activity of the test compound was evaluated based on the human FXa inhibitory activity in serum as an indicator.
At 10, 30, 60, 120 min from the intravenous administration, blood was taken from the eye ground using a hematocrit tube. The blood was centrifuged at 9000 G for 5 min and the obtained serum was used for the determination.
(§4) Human FXa inhibitory activity was measured as follows. Human FXa [Enzyme research Laboratories (USA)] enzyme (40 μl, 0.5 U/ml) and a 4-fold diluted plasma sample (40 μl) were incubated in 0.1M Tris-0.2M NaCl buffer (pH 8.4) (40 μl) at 37° C. for 10 min. A synthetic substrate S-2222 (Daiichi Pure Chemical (Tokyo, Japan), 40 μl) adjusted to 0.8 mM was added and the mixture was incubated at 37° C. for 5 min. The reaction was stopped by addition of 60% acetic acid (40 μl) and absorbance at 405 nm was measured by Model 3550 (BIO-RAD). For the control, serum or plasma obtained prior to blood sampling was used for measurement. Human FXa inhibitory activity was calculated as inhibition percentage (%) against control.

[3] = system: normal plasma; assay: Determination of prothrombin time (PT), human plasma; type: biochemical
Method: as §1, §2, §3

[4] = system: decrease of platelets and formation of FDP by thromboplastin; assay: Blood coagulation model in rat (thromboplastin); type: in vivo; details: i.v. 10 min before thromboplastin, mean ± S.D, n = 3; for PLT value: counted 10 min later; for FDP value: measured 30 min later
Method: Blood Coagulation Model in Rat
Intravenous administration of thromboplastin (Sigma) to rat promotes coagulation system, which in turn decreases platelets and increases fibrin degradation product (FDP). Thus, the test compound was intravenously administered 10 min before thromboplastin administration and the inhibitory effects of the test compound on the decrease of platelets and the formation of FDP by thromboplastin were studied. The thromboplastin administered had such concentration as to form clots within 20 seconds from the addition of one plasma dose to two thromboplastin doses and was administered in 1 ml/kg dose. Platelets were counted (PLT value) 10 min later on a blood cell counter sysmex F-800 [Dade International Inc. (USA)], and FDP was measured 30 min later using FDP latex reagent for serum [Teikoku Hormone Mfg. Co., Ltd. (Tokyo, Japan)]. In every Example, the PLT value of the thromboplastin untreated group was (106±13)×10^4 and the FDP value of this group was 0±0 μg/ml.

[5] = biological target: T1, Human FXa; assay: Oral administration test in mouse, human FXa inhibitory activity in serum; type: in vivo; details: ICR mice, mean ± S.D., n = 3
Method: as §4
Oral Administration Tests in Mouse
A test compound dissolved in distilled water was orally administered to ICR mice (body weight 20-30 g, 4-6 weeks old) and the activity of the test compound was evaluated based on the human FXa inhibitory activity in serum as an indicator.
At 30, 60, 120, 180 min from the oral administration, blood was taken from the eye ground using a hematocrit tube. The blood was centrifuged at 9000 G for 5 min and the obtained serum was used for the determination. Human FXa inhibitory activity was determined in the same manner as in the test by intravenous administration.

[6] = system: normal plasma; assay: Determination of prothrombin time (PT), rat plasma; type: biochemical
Method: as §1, §2, §3

[7] = system: normal plasma; assay: Determination of prothrombin time (PT), crab-eating monkey plasma; type: biochemical
Method: as §1, §2, §3

[8] = biological target: T2, Human FIIa (Homo sapiens, UniProt P00734); assay: Determination of anti-factor IIa (FIIa) activity, synthetic substrate S-2238; type: biochemical; details: S-2238, 37° C., pH 8.4, read-out: Experimental Example 2: anti-FIIa activity, IC50
T2 construct: purchased Sigma

SMILES	CT2 (drug concentration that doubled the PT) [1]	inhibition at 1 mg/kg ([2]; 10 minutes)	inhibition at 1 mg/kg ([2]; 30 minutes)	inhibition at 1 mg/kg ([2]; 60 minutes)	inhibition at 1 mg/kg ([2]; 120 minutes)	CT2 (drug concentration that doubled the PT) [3]	PLT value ([4]; dose 0.1 mg/kg)	FDP value ([4]; dose 0.1 mg/kg)	PLT value ([4]; dose 0.3 mg/kg)	FDP value ([4]; dose 0.3 mg/kg)	inhibition at 10 mg/kg ([5]; 30 minutes)	inhibition at 10 mg/kg ([5]; 60 minutes)	inhibition at 10 mg/kg ([5]; 120 minutes)	inhibition at 10 mg/kg ([5]; 180 minutes)	CT2 (drug concentration that doubled the PT) [6]	CT2 (drug concentration that doubled the PT) [7]	further results
CC(=N)N1CC[C@H](Oc2ccc([C@H](Cc3ccc4ccc(C(=N)N)cc4c3)C(=O)O)cc2)C1 [Comparative Example 1, (2S)-2-[4-[(3S)-1-acetimidoylpyrrolidin-3-yloxy]phenyl]-3-[7-amidinonaphthalen-2-yl]propionic acid hydrochloride pentahydrate, reference compound]	10 µM	43 ± 3%	14 ± 2%	0%	1 ± 2%	2 µM	67 ± 16 ×10^4 blood platelet/μl	3 ± 2 µg/mL	100 ± 5 ×10^4 blood platelet/μl	1 ± 1 µg/mL	11 ± 4%	6 ± 4%	6 ± 4%	6 ± 4%	10 µM	4 µM	PLT value ([4]; dose 0.03 mg/kg): 41 ± 9 ×10^4 blood platelet/μl; FDP value ([4]; dose 0.03 mg/kg): 9 ± 2 µg/mL
N=C(N)N1CCc2ccc(OCC3(C(=O)O)CCN(c4ccncc4)CC3)cc2C1 [Example 67, 4-(2-Amidino-1,2,3,4-tetrahydroisoquinolin-7-yloxymethyl)-1-(pyridin-4-yl)piperidine-4-carboxylic Acid Methanesulfonate]	–	–	–	–	–	–	–	–	–	–	–	–	–	–	–	5 µM	–
N=C(N)N1CCc2ccc(OCC3(C(=O)O)CCN(c4ccncc4)CC3)cc2C1 [Example 7, 4-(2-Amidino-1,2,3,4-tetrahydroisoquinolin-7-yloxymethyl)-1-(pyridin-4-yl)piperidine-4-carboxylic Acid Dihydrochloride]	10 µM	64 ± 2%	54 ± 1%	46 ± 4%	30 ± 5%	0.5 µM	66 ± 21 ×10^4 blood platelet/μl	7 ± 3 µg/mL	72 ± 10 ×10^4 blood platelet/μl	4 ± 1 µg/mL	48 ± 7%	40 ± 9%	26 ± 7%	18 ± 9%	30 µM	–	inhibition at 3 mg/kg ([2]; 10 minutes): 82 ± 1%; inhibition at 3 mg/kg ([2]; 30 minutes): 78 ± 1%; inhibition at 3 mg/kg ([2]; 60 minutes): 72 ± 2%; inhibition at 3 mg/kg ([2]; 120 minutes): 59 ± 5%; PLT value ([4]; dose 1 mg/kg): 96 ± 18 ×10^4 blood platelet/μl; FDP value ([4]; dose 1 mg/kg): 0 ± 0 µg/mL; IC50 [8]: > 10 µM
